According to US10500178B2, “LTB4 inhibition to prevent and treat human lymphedema” (The Board of Trustees of the Leland Stanford Junior …, priority 2015, dated 2019):

Legend:
secondary leg lymphedema = assay: study of ubenimex in patients with secondary leg lymphedema; assay type: in vivo, human; conditions: oral 150 mg three times daily, 6-month treatment period
Experimental: A study is conducted for treatment of patients with acquired lymphedema of the lower extremities with ubenimex. In this study, ubenimex is evaluated over a 6-month treatment period to determine the effect on dermal thickness and other efficacy measures in patients with secondary leg lymphedema. The efficacy, safety and tolerability of ubenimex in this patient population is characterized. Adult male and female subjects are enrolled with a confirmed diagnosis of Stage II or greater secondary leg lymphedema, based on a positive lymphoscintigraphy (LSG) study of the affected leg. At least 20 individuals are enrolled in each of the treatment and placebo arm of the trial. Individuals are given oral 150 mg ubenimex three times daily for a total daily dose of 450 mg. The drug and placebo are provided in a capsule form. Efficacy assessments include skin thickness (as measured by skinfold calipers), leg volume (as measured by standardized tape measure), bioimpedance (as measured by the […]) to measure 4-limb bioimpedance to determine extracellular fluid volume), and skin biopsy results (as measured by 6-mm skin punch biopsy samples to assess skin thickness and architecture (e.g., presence of hyperkeratosis, dermal collagen, and adipose deposition).

LEC Notch1−/− mice = assay: lymphedema surgery in LEC Notch1-/- mice; assay type: in vivo, mouse
Excerpt: (§1) To generate lymphatic endothelial specific tdTomato reporter mice (Prox1-Cre-ER-tdTomato), Prox1-Cre-ER mice were crossed with tdTomato mice. To create lymphatic endothelial cell specific Notch1 or S1pr1 conditional knockouts, Prox1-Cre-ER mice were crossed with Notch1loxp/loxp or S1pr1loxp/loxp mice. Mice with Prox1-Cre-ER and both target alleles floxed by Prox1-Cre-ER/Notch1^loxp/loxp or Prox1-Cre-ER/S1pr1^loxp/loxp were considered to be either lymphatic endothelial cell-specific Notch1 knockout (LEC Notch1−/−) or S1pr1 knockout (LEC S1pr1^−/−), respectively. Mice expressing Prox1-Cre-ER were used as WT controls. […] Cre-mediated gene knockout efficiency was evaluated by enumerating Notch1- or S1PR1-expressing lymphatic endothelial cells or by qRT-PCR measurements of Notch1 or S1pr1 transcripts in the lymphatic endothelial cells, sorted by flow cytometry. […]
(§2) Tail volume quantitation. Tail-volume measurements at each designated time were quantified by observers blinded to the treatment status of the subjects. Tail volumes were calculated through a digital photographic technique pre-operatively, and post-operatively (d3, d9, d14, d20, and d24), using an Olympus D520 Zoom digital camera at SHQ resolution at a fixed distance from the subject (37 cm), as previously described. […]

LEC S1pr1−/− mice = assay: lymphedema surgery in LEC S1pr1-/- mice; assay type: in vivo, mouse
Excerpt: as §1, §2

CC(C)C[C@H](NC(=O)[C@@H](O)[C@H](N)Cc1ccccc1)C(=O)O [bestatin, (2S)-2-[[(2S,3R)-3-amino-2-hydroxy-4-phenylbutanoyl]amino]-4-methylpentanoic acid]
difference between ubenimex and placebo treatment arms by clinical indicia (secondary leg lymphedema): statistically significant difference
response of lymphedema to therapy (LEC Notch1−/− mice): refractory
mural smooth muscle coverage around collecting lymphatics (LEC Notch1−/− mice; as against WTs): not restituted
lymphatic Sphk1 and eNOS expression after treatment (LEC S1pr1−/− mice): remaining low
reversal of lymphedema (tail volume, dermal thickness, lymphatic dilation) (LEC S1pr1−/− mice): failed to reverse lymphedema
